What was measured:
[1] = biological target: T1, Platelet-activating factor receptor (Homo sapiens, UniProt P25105); experiment: In vitro inhibition of [3H]-C18 PAF binding to human platelet membrane Platelet activating factor receptor.; set-up: concentration or dose not given beside the values; conditions: concentration not given here
[2] = biological target: Platelet-activating factor receptor (Rattus norvegicus) (UniProt P46002); experiment: In vivo inhibition of 10 nmole/kg PAF-induced plasma N-acetyl-beta-glucosaminidase (NAGA) after oral administration to rats; format: organism-based; set-up: concentration or dose not given beside the values
Sequence of Platelet-activating factor receptor (Rattus norvegicus) (P46002 whole entry): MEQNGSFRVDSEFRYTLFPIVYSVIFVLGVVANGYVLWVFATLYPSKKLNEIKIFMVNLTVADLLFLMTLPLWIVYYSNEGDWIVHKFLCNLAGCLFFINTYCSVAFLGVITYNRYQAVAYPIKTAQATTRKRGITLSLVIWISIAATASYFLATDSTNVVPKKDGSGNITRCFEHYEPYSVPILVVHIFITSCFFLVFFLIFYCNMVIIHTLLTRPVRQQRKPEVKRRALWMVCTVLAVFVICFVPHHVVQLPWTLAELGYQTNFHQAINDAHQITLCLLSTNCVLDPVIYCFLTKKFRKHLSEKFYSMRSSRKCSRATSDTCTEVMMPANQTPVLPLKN

[3] = biological target: Platelet-activating factor receptor (Rattus norvegicus) (UniProt P46002); experiment: In vivo inhibition of 10 nmole/kg PAF-induced hemoconcentration was determined at 1 mg/kg peroral administration; format: functional, organism-based; set-up: dose 1 mg/kg
[4] = biological target: T1, Platelet-activating factor receptor; experiment: Compound was evaluated for inhibitory activity of binding of [3H]-C18 PAF to human platelet membrane Platelet activating factor receptor
[5] = biological target: T1, Platelet-activating factor receptor; experiment: Compound was evaluated for inhibition of binding of [3H]-C18 PAF to human platelet membrane Platelet activating factor receptor
Homo sapiens = species: Homo sapiens; experiment: Inhibitory activity of compound was determined by 3E-7M PAF-induced degranulation of PAFas measured by myeloperoxidase secretion; format: functional
Rattus norvegicus [6] = experiment: Compound inhibits 10 nmole/kg PAF-induced hemoconcentration and plasma N-acetyl-beta-glucosaminidase increase in female rats; format: functional
Rattus norvegicus [7] = experiment: Drop in blood pressure was observed after 15 minutes of intravenous administration of 0.2 mg/kg compound; format: functional
Rattus norvegicus [8] = experiment: Compound inhibits 10 nmole/kg PAF-induced hemoconcentration and plasma N-acetyl-beta-glucosaminidase increase in male rats; format: functional
Rattus norvegicus [9] = experiment: In vivo inhibition of 10 nmole/kg PAF-induced hemoconcentration was determined at 1 mg/kg peroral administration in rats; format: functional; conditions: route oral
[10] = biological target: T1, Platelet-activating factor receptor; experiment: In vitro inhibition of [3H]-C18 PAF binding to human platelet membrane Platelet activating factor receptor was determined

T1 sequence (P25105 whole entry): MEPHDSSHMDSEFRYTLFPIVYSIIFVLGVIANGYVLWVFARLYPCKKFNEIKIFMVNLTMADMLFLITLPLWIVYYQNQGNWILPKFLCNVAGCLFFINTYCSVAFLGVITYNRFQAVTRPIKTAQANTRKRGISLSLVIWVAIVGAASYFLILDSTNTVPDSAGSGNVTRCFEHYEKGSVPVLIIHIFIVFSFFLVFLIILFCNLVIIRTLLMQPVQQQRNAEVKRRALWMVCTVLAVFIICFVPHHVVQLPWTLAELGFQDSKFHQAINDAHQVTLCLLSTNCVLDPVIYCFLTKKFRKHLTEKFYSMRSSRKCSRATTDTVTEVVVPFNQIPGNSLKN

Row | SMILES | inhibition [1] [%] | inhibition [2] [%] | inhibition [3] [%] | further results
1 | CCCS(=O)(=O)c1cc(C2CC[C@@H](c3cc(OC)c(OC)c(OC)c3)O2)cc(OC)c1OCCS(=O)(=O)c1ccncc1 (some centres not stated) | 45 | 5 | 0 | 
2 | CCCS(=O)(=O)c1cc(C2CC[C@@H](c3cc(OC)c(OC)c(OC)c3)O2)cc(OC)c1OCC[S+]([O-])c1ccc(C#N)cc1 (some centres not stated) | 74 | 0 | 5 | 
3 | CCCS(=O)(=O)c1cc(C2CC[C@@H](c3cc(OC)c(OC)c(OC)c3)O2)cc(OC)c1OCCSc1ccc(C(=O)O)cc1 (some centres not stated) | 38 | 23 | 11 | 
4 | CCCS(=O)(=O)c1cc(C2CC[C@@H](c3cc(OC)c(OC)c(OC)c3)O2)cc(OC)c1OCCSc1ccc(O)cc1 (some centres not stated) | 100 | 75 | 63 | 
5 | CCCS(=O)(=O)c1cc(C2CC[C@@H](c3cc(OC)c(OC)c(OC)c3)O2)cc(OC)c1OCCS(=O)(=O)c1ccc(C#N)cc1 (some centres not stated) | 69 | 1 | 0 | 
6 | CCCS(=O)(=O)c1cc(C2CC[C@@H](c3cc(OC)c(OC)c(OC)c3)O2)cc(OC)c1OCCSc1ccncc1 (some centres not stated) | 73 | 15 | 15 | 
7 | CCCS(=O)(=O)c1cc(C2CC[C@@H](c3cc(OC)c(OC)c(OC)c3)O2)cc(OC)c1OCCSc1ccccc1O (some centres not stated) | 58 |  |  | 
8 | CCCS(=O)(=O)c1cc(C2CC[C@@H](c3cc(OC)c(OC)c(OC)c3)O2)cc(OC)c1OCCS(=O)(=O)c1ccccc1 (some centres not stated) | 72 | 94 | 94 | IC50 [4]: 1 nM; Ki [5]: 1 nM; IC50 (Homo sapiens): 0.78 nM; ED50 (Rattus norvegicus [6]): 0.22 mg/kg; Decrease in blood pressure (Rattus norvegicus [7]): 79 mmHg; ED50 (Rattus norvegicus [8]): 0.26 mg/kg
9 | CCCS(=O)(=O)c1cc(C2CC[C@@H](c3cc(OC)c(OC)c(OC)c3)O2)cc(OC)c1OCCSc1ccc(C#N)cc1 (some centres not stated) | 93 | 39 | 33 | 
10 | CCCS(=O)(=O)c1cc(C2CC[C@@H](c3cc(OC)c(OC)c(OC)c3)O2)cc(OC)c1OCCSc1cccc(N)c1 (some centres not stated) | 80 | 4 |  | inhibition in vivo at 1 mg/kg (Rattus norvegicus [9]): 7%
11 | CCCS(=O)(=O)c1cc(C2CC[C@@H](c3cc(OC)c(OC)c(OC)c3)O2)cc(OC)c1OCCS(=O)(=O)c1ccc(N)cc1 (some centres not stated) | 41 |  |  | 
12 | CCCS(=O)(=O)c1cc(C2CC[C@@H](c3cc(OC)c(OC)c(OC)c3)O2)cc(OC)c1OCC[S+]([O-])c1ccc(N)cc1 (some centres not stated) | 0 |  |  | 
13 | CCCS(=O)(=O)c1cc(C2CC[C@@H](c3cc(OC)c(OC)c(OC)c3)O2)cc(OC)c1OCCSc1ccccc1N (some centres not stated) | 57 |  |  | 
14 | CCCS(=O)(=O)c1cc(C2CC[C@@H](c3cc(OC)c(OC)c(OC)c3)O2)cc(OC)c1OCCSc1ncc[nH]1 (some centres not stated) | 60 | 13 | 11 | 
15 | CCCS(=O)(=O)c1cc(C2CC[C@@H](c3cc(OC)c(OC)c(OC)c3)O2)cc(OC)c1OCCSc1ccc(C(N)=O)cc1 (some centres not stated) | 70 | 32 | 26 | 
16 | CCCS(=O)(=O)c1cc(C2CC[C@@H](c3cc(OC)c(OC)c(OC)c3)O2)cc(OC)c1OCCSc1ccccc1 (some centres not stated) | 93 | 84 | 95 | 
17 | CCCS(=O)(=O)c1cc(C2CC[C@@H](c3cc(OC)c(OC)c(OC)c3)O2)cc(OC)c1OCCS(=O)(=O)c1ccc(O)cc1 (some centres not stated) | 88 | 13 |  | inhibition in vivo at 1 mg/kg (Rattus norvegicus [9]): 7%
18 | CCCS(=O)(=O)c1cc(C2CC[C@@H](c3cc(OC)c(OC)c(OC)c3)O2)cc(OC)c1OCCSc1ccc(N)cc1 (some centres not stated) | 60 | 58 |  | inhibition in vivo at 1 mg/kg (Rattus norvegicus [9]): 56%
19 | CCCOc1c(OC)cc([C@H]2CC[C@H](c3cc(OC)c(OC)c(OC)c3)O2)cc1S(C)(=O)=O (single isomer, unassigned) |  |  |  | Ki [10]: 14.3 nM
20 | CCCS(=O)(=O)c1cc(C2CC[C@@H](c3cc(OC)c(OC)c(OC)c3)O2)cc(OC)c1OCCSc1ccc(N(C)C)cc1 (some centres not stated) | 66 | 57 | 66 | 
21 | CCCS(=O)(=O)c1cc(C2CC[C@@H](c3cc(OC)c(OC)c(OC)c3)O2)cc(OC)c1OCC[S+]([O-])c1ccc(O)cc1 (some centres not stated) | 73 | 44 |  | inhibition in vivo at 1 mg/kg (Rattus norvegicus [9]): 25%
22 | CCCS(=O)(=O)c1cc(C2CC[C@@H](c3cc(OC)c(OC)c(OC)c3)O2)cc(OC)c1OCCSc1cccc(O)c1 (some centres not stated) | 61 | 29 | 27 | 

From ChEMBL document CHEMBL1126400, “Synthesis and biological activity of the platelet-activating factor antagonist ()-trans-2-(3-methoxy-4-phenylsulfonylethoxy-5-n-propylsulfonylphenyl)-5-(3,4,5-trimethoxyphenyl)tetrahydrofuran (L-671,284) and its analogs” (Bioorg Med Chem Lett, 1992)
